Consider six compounds from patent US20100311912A1, “ANTIMICROBIAL SURFACES” (priority 2008, published 2010).

≈ marks a conversion by molar mass, not a printed value. Like-named read-outs stand apart in the source and are kept apart here.

What all share (assay type): cell-based
Assay [1] concerns Staphylococcus aureus ATCC 29213. Nature of the assay: Broth micro dilution assay for MIC and MBC. Particulars: S. aureus ATCC 29213. How it is done: All bacteria were grown on blood agar plates (Colombia agar-CM331, Oxoid Limited, Basingstoke, Hampshire, United Kingdom) supplemented with 5% v/v sheep blood) at 37° C. The Streptococcus species were incubated at 37° C. in the presence of 5% carbon dioxide (CO2).
Duplicate two-fold serial dilutions of test sample (100 μL/well) were prepared in sterile round-bottom 96-well plates (Sarstedt Australia Pty Ltd, Technology Park, SA, Australia), in the appropriate broth containing 2% DMSO. Bacterial cell suspension (100 μL) corresponding to 1×10^6 CFU/mL was added in all wells with the exception of wells containing saline, test sample and media sterility controls, respectively. Controls for bacterial growth without test sample were also included on each plate. Plates were then placed on a shaker for 10 min and incubated at 37° C. overnight. […] Vancomycin and gentamicin (Sigma, St Louis, Mo., United States of America) were used as positive controls for the Gram-positive and Gram-negative bacteria, respectively. Following the determination of the MIC, the MBC was determined by transferring a 10 μL aliquot from each of the wells at the concentration corresponding to the MIC and those concentrations above into 190 μL of appropriate broth in a sterile 96-well plate. […] The presence or absence of bacterial growth was determined by visual inspection. The MBC was considered to be the lowest concentration of the compound at which no growth occurred.

For assay [2], the system named is Gram-positive bacteria including S. aureus, S. pyogenes and S. pneumoniae. Nature of the assay: Broth micro dilution assay, Gram-positive bacteria. Particulars: for antimicrobial activity against other Gram-positive bacteria: S. aureus (ATCC 25925), S. pyogenes, S. pneumoniae, values not shown. The protocol: (§1) Staphylococcus aureus ATCC 29213 obtained from stock cultures stored at −70° C. at the Sansom Institute (University of South Australia, Adelaide, SA, Australia) was used as the test microorganism in a bioassay guided fractionation process. […] All bacteria were grown on blood agar plates (Colombia agar-CM331, Oxoid Limited, Basingstoke, Hampshire, United Kingdom) supplemented with 5% v/v sheep blood) at 37° C. The Streptococcus species were incubated at 37° C. in the presence of 5% carbon dioxide (CO2). Brain Heart Infusion broth (CM 225, Oxoid Limited) was used for the experiments to determine the minimum inhibitory concentration (MIC) and minimum bactericidal concentration (MBC) for the Streptococcus species while cation adjusted MH II broth (Becton Dickinson France SAS, Le Point de Claix, France) was used for the Staphylococcus species and the Gram-negative bacteria tested.
(§2) Broth micro dilution was used to determine the MIC of extract, fractions and pure compounds against S. aureus ATCC 29213. Duplicate two-fold serial dilutions of test sample (100 μL/well) were prepared in sterile round-bottom 96-well plates (Sarstedt Australia Pty Ltd, Technology Park, SA, Australia), in the appropriate broth containing 2% DMSO. Bacterial cell suspension (100 μL) corresponding to 1×10^6 CFU/mL was added in all wells with the exception of wells containing saline, test sample and media sterility controls, respectively. Controls for bacterial growth without test sample were also included on each plate. Plates were then placed on a shaker for 10 min and incubated at 37° C. overnight. […] Vancomycin and gentamicin (Sigma, St Louis, Mo., United States of America) were used as positive controls for the Gram-positive and Gram-negative bacteria, respectively. Following the determination of the MIC, the MBC was determined by transferring a 10 μL aliquot from each of the wells at the concentration corresponding to the MIC and those concentrations above into 190 μL of appropriate broth in a sterile 96-well plate. The plates were incubated under the same conditions as in the MIC experiment with the Streptococcus species incubated in the presence of 5% CO2. The presence or absence of bacterial growth was determined by visual inspection. The MBC was considered to be the lowest concentration of the compound at which no growth occurred.

Assay [3] deals with Gram-negative bacteria tested. Nature of the assay: Broth micro dilution assay, Gram-negative bacteria. The note with it: all Gram-negative bacteria tested, maximum concentrations tested. How it is done: as §1
Broth micro dilution was used to determine the MIC of extract, fractions and pure compounds against S. aureus ATCC 29213. […] Following the determination of the MIC, the MBC was determined by transferring a 10 μL aliquot from each of the wells at the concentration corresponding to the MIC and those concentrations above into 190 μL of appropriate broth in a sterile 96-well plate. […] The presence or absence of bacterial growth was determined by visual inspection. […]

For assay [4], the system named is Salmonella typhimurium ATCC 13311. Nature of the assay: Broth micro dilution assay for MIC and MBC. The note with it: Salmonella enterica; S. typhimurium ATCC 13311; maximum concentration tested 250 μg/mL. How it is done: as §1, §2
The test system of assay [5] is Pseudomonas aeruginosa ATCC 27853. Nature of the assay: Broth micro dilution assay for MIC and MBC. The note with it: ATCC27853, P. aeruginosa ATCC 27853, maximum concentration tested 250 μg/mL. The protocol:
as §1, §2

Assay [6] has as its system Escherichia coli ATCC 25922. Nature of the assay: Broth micro dilution assay for MIC and MBC. The note with it: ATCC25922, E. coli ATCC 25922, maximum concentration tested 250 μg/mL. How it is done:
as §1, §2

The test system of assay [7] is Staphylococcus aureus ATCC 25923. As to the kind of experiment: Broth micro dilution assay for MIC and MBC. Particulars: ATCC25923, S. aureus ATCC 25923. The protocol:
as §1, §2

Assay [8] has as its system Streptococcus pneumoniae ATCC 49619. Nature of the assay: Broth micro dilution assay for MIC and MBC. The note with it: ATCC49619, S. pneumoniae ATCC 49619. How it is done:
as §1, §2

Assay [9] has as its system Streptococcus pyogenes ATCC 10389. Nature of the assay: Broth micro dilution assay for MIC and MBC. The note with it: ATCC10389, S. pyogenes ATCC 10389. The protocol: as §1, §2
[10] abbreviates: range over Gram-positive bacteria of Table 2.

For orientation: MIC means the smallest concentration in the dilution series that meets the test's criterion for growth inhibition. With “8,20-diacetoxyserrulat-14-en-19-oic acid [Compound 5]”, the MIC in assay [1] stood at 250 µg/mL.
Still for that read-out and setting: in the case of “8,20-dihydroxyserrulat-14-en-19-oic acid [Compound 4]” it was 250 µg/mL.
Usually MBC stands for the lowest tested concentration that kills the bacteria rather than only halting them. In the case of `CC(C)=CCCC1COC2=C(C)C(=O)C(=O)c3cccc1c32` (stereo not shown) [Compound 2, 9-methyl-3-(4-methyl-3-pentenyl)-2,3-dihydronaphtho[1,8-bc]pyran-7,8-dione], the minimal bactericidal concentration (MBC) in [2] (setting [10]) was 7.8 to 125 µg/mL (≈ 26.3 to 422 µM); in [1] (Staphylococcus aureus, ATCC29213) it was 125 µg/mL (≈ 422 µM); in assay [4] it was greater than 250 µg/mL; in [5] it was greater than 250 µg/mL; in [6], greater than 250 µg/mL; in [7], 15.6 µg/mL (≈ 52.6 µM). The MBC in assay [8] was found to be 7.8 µg/mL (≈ 26.3 µM); in assay [9] it was 15.6 µg/mL (≈ 52.6 µM). The MIC in assay [2] (setting [10]) was 7.8 to 15.6 µg/mL (≈ 26.3 to 52.6 µM); in assay [1] (Staphylococcus aureus, ATCC29213, read-out: MIC), 15.6 µg/mL (≈ 52.6 µM); in assay [4] it was greater than 250 µg/mL; in assay [5], greater than 250 µg/mL; in [6] it was greater than 250 µg/mL; in assay [7] it was 7.8 µg/mL (≈ 26.3 µM). For the same compound, the minimum inhibitory concentration (MIC) in assay [8] and in [9] was 7.8 µg/mL (≈ 26.3 µM) in each case. For the same compound, the “activity against Gram-negative bacteria” value in assay [3] is “Activity was not observed”.
With `CC(=O)OCC(CCC=C(C)C)C1CCC(C)c2ccc(C(=O)O)c(O)c21` (stereo not shown) [Compound 3, 20-acetoxy-8-hydroxyserrulat-14-en-19-oic acid], in assay [1], the minimum inhibitory concentration (MIC) was 125 µg/mL (≈ 334 µM).
For `CC(C)=CCCC(C)C1CCC(C)c2cc(CO)c(O)cc21` (stereo not shown) [Compound 7, 8,19-dihydroxyserrulat-14-ene], in assay [2], the “antimicrobial activity against other Gram-positive bacteria” value is recorded as “showed antimicrobial activity”.
Regarding `CC(C)=CCCC(C)C1CCC(C)c2cc(C(=O)O)c(O)cc21` (stereo not shown) [Compound 8, 8-hydroxyserrulat-14-en-19-oic acid], the “antimicrobial activity against other Gram-positive bacteria” value in assay [2] is reported as “showed antimicrobial activity”.
